What was measured:
BT-474 [1] = assay: Antiproliferative activity against human BT-474 cells assessed as inhibition of cell growth incubated for 72 hrs by Celltiter-Glo assay; assay type: functional, cell-based; conditions: BT-474, 72 h
[2] = target: T1, Epidermal growth factor receptor (Homo sapiens, UniProt P00533); assay: Inhibition of wild type human N-terminal GST tagged EGFR (669 to 1210 residues) expressed in Sf21 insect cells incubated for 30 mins in presence of ATP by HTRF analysis
[3] = target: T2, Receptor tyrosine-protein kinase erbB-2 (Homo sapiens, UniProt P04626); assay: Inhibition of wild type human GST-tagged HER2 (676 to end residues) expressed in baculovirus infected Sf9 cells incubated for 30 mins in presence of ATP by HTRF analysis
NCI-N87 [4] = assay: Antiproliferative activity against human NCI-N87 cells assessed as inhibition of cell growth incubated for 72 hrs by Celltiter-Glo assay; assay type: functional, cell-based; conditions: NCI-N87, 72 h
[5] = AUC (0 to t) in ICR mouse at 10 mg/kg, po measured upto 1440 mins by LC/MS/MS analysis; assay type: ADME, organism-based; parameters: time < 1440 min, dose 10 mg/kg, route po; conditions: in vivo
[6] = Clearance in Sprague-Dawley rat at 3 mg/kg, iv measured upto 1440 mins by LC/MS/MS analysis; assay type: ADME, organism-based; conditions: in vivo
[7] = AUC (0 to t) in Sprague-Dawley rat at 10 mg/kg, po measured upto 1440 mins by LC/MS/MS analysis; assay type: ADME, organism-based; parameters: dose 10 mg/kg, time < 1440 min, route po; conditions: in vivo
[8] = Volume of distribution at steady state in ICR mouse at 3 mg/kg, iv measured upto 1440 mins by LC/MS/MS analysis; assay type: ADME, organism-based; conditions: in vivo, read-out: Vdss
[9] = Half life in Sprague-Dawley rat at 3 mg/kg, iv measured upto 1440 mins by LC/MS/MS analysis; assay type: ADME, organism-based; conditions: in vivo
[10] = Oral bioavailability in Sprague-Dawley rat at 10 mg/kg measured upto 1440 mins by LC/MS/MS analysis; assay type: ADME, organism-based; conditions: in vivo
[11] = Half life in Sprague-Dawley rat at 10 mg/kg, po measured upto 1440 mins by LC/MS/MS analysis; assay type: ADME, organism-based; conditions: in vivo
[12] = Cmax in ICR mouse at 10 mg/kg, po measured upto 1440 mins by LC/MS/MS analysis; assay type: ADME, organism-based; parameters: dose 10 mg/kg, time < 1440 min, route po; conditions: in vivo
[13] = Half life in ICR mouse at 3 mg/kg, iv measured upto 1440 mins by LC/MS/MS analysis; assay type: ADME, organism-based; conditions: in vivo
[14] = Tmax in ICR mouse at 10 mg/kg, po measured upto 1440 mins by LC/MS/MS analysis; assay type: ADME, organism-based; conditions: in vivo
[15] = Volume of distribution at steady state in Sprague-Dawley rat at 3 mg/kg, iv measured upto 1440 mins by LC/MS/MS analysis; assay type: ADME, organism-based; conditions: in vivo, read-out: Vdss
[16] = Oral bioavailability in ICR mouse at 10 mg/kg measured upto 1440 mins by LC/MS/MS analysis; assay type: ADME, organism-based; conditions: in vivo
[17] = Clearance in ICR mouse at 3 mg/kg, iv measured upto 1440 mins by LC/MS/MS analysis; assay type: ADME, organism-based; conditions: in vivo
[18] = Tmax in Sprague-Dawley rat at 10 mg/kg, po measured upto 1440 mins by LC/MS/MS analysis; assay type: ADME, organism-based; conditions: in vivo
[19] = Half life in ICR mouse at 10 mg/kg, po measured upto 1440 mins by LC/MS/MS analysis; assay type: ADME, organism-based; conditions: in vivo
[20] = Cmax in Sprague-Dawley rat at 10 mg/kg, po measured upto 1440 mins by LC/MS/MS analysis; assay type: ADME, organism-based; parameters: time < 1440 min, dose 10 mg/kg, route po; conditions: in vivo
BT-474 [21] = assay: Antitumor activity against human BT-474 cells xenografted in BALB/c nude mouse assessed as tumor growth inhibition at 20 mg/kg/day, po administered once daily for 21 days relative to control; assay type: functional; conditions: BT-474, 504 h, time 21 day, read-out: TGI
SK-BR-3 = assay: Antiproliferative activity against human SK-BR-3 cells overexpressing wild type HER2 assessed as cell growth inhibition incubated for 72 hrs by Celltiter-Glo assay; assay type: functional, cell-based; conditions: SK-BR-3, 72 h
[22] = target: Receptor tyrosine-protein kinase erbB-2 (Homo sapiens, UniProt P04626, V777L); assay: Inhibition of HER2 V777L mutant (unknown origin) incubated for 120 mins in presence of 33P-ATP by P81 ion exchange cellulose chromatography
[23] = target: Receptor tyrosine-protein kinase erbB-2 (Homo sapiens, UniProt P04626, D769Y); assay: Inhibition of HER2 D769Y mutant (unknown origin) incubated for 120 mins in presence of 33P-ATP by P81 ion exchange cellulose chromatography
[24] = target: Receptor tyrosine-protein kinase erbB-2 (Homo sapiens, UniProt P04626, D769H); assay: Inhibition of HER2 D769H mutant (unknown origin) incubated for 120 mins in presence of 33P-ATP by P81 ion exchange cellulose chromatography
BaF3 [25] = assay: Antitumor activity against mouse BaF3 cells harbouring HER2 A775_G776insYVMA mutant xenografted in BALB/c nude mouse assessed as tumor growth inhibition at 20 mg/kg, po qd measured for 13 days relative to control; assay type: functional; conditions: BaF3, 312 h, time 13 day, read-out: TGI
ES-2 = assay: Antiproliferative activity against human ES2 cells assessed as cell growth inhibition incubated for 72 hrs by Celltiter-Glo assay; assay type: functional, cell-based; conditions: ES-2, 72 h
NUGC-4 = assay: Antiproliferative activity against human NUGC-4 cells assessed as cell growth inhibition incubated for 72 hrs by Celltiter-Glo assay; assay type: functional, cell-based; conditions: NUGC-4, 72 h
MFE-280 = assay: Antiproliferative activity against human MFE-280 cells assessed as cell growth inhibition incubated for 72 hrs by Celltiter-Glo assay; assay type: functional, cell-based; conditions: MFE-280, 72 h
[26] = Antiproliferative activity against human KM12-Luc cells assessed as cell growth inhibition incubated for 72 hrs by Celltiter-Glo assay; assay type: functional, cell-based
NCI-N87 [27] = assay: Antitumor activity against human NCI-N87 cells xenografted in BALB/c nude mouse assessed as tumor growth inhibition at 20 mg/kg/day, po administered once daily for 21 days relative to control; assay type: functional; conditions: NCI-N87, 504 h, time 21 day, read-out: TGI
MDA-MB-468 = assay: Antiproliferative activity against human MDA-MB-468 cells overexpressing wild type EGFR assessed as cell growth inhibition incubated for 72 hrs by Celltiter-Glo assay; assay type: functional, cell-based; conditions: MDA-MB-468, 72 h
[28] = target: Receptor tyrosine-protein kinase erbB-2 (Homo sapiens, UniProt P04626, R896C); assay: Inhibition of HER2 R896C mutant (unknown origin) incubated for 120 mins in presence of 33P-ATP by P81 ion exchange cellulose chromatography
[29] = target: T2, Receptor tyrosine-protein kinase erbB-2; assay: Inhibition of HER2 (unknown origin)
NCI-H441 = assay: Antiproliferative activity against human NCI-H441 cells assessed as cell growth inhibition incubated for 72 hrs by Celltiter-Glo assay; assay type: functional, cell-based; conditions: NCI-H441, 72 h
COLO-678 = assay: Antiproliferative activity against human COLO-678 cells assessed as cell growth inhibition incubated for 72 hrs by Celltiter-Glo assay; assay type: functional, cell-based; conditions: COLO-678, 72 h
BaF3 [30] = assay: Antiproliferative activity against mouse BaF3 cells harbouring HER2 […] mutant assessed as inhibition of cell growth incubated for 72 hrs by Celltiter-Glo assay; assay type: functional, cell-based; conditions: BaF3, 72 h
[31] = target: T1, Epidermal growth factor receptor; assay: Inhibition of EGFR (unknown origin)

T2 sequence (P04626 whole entry): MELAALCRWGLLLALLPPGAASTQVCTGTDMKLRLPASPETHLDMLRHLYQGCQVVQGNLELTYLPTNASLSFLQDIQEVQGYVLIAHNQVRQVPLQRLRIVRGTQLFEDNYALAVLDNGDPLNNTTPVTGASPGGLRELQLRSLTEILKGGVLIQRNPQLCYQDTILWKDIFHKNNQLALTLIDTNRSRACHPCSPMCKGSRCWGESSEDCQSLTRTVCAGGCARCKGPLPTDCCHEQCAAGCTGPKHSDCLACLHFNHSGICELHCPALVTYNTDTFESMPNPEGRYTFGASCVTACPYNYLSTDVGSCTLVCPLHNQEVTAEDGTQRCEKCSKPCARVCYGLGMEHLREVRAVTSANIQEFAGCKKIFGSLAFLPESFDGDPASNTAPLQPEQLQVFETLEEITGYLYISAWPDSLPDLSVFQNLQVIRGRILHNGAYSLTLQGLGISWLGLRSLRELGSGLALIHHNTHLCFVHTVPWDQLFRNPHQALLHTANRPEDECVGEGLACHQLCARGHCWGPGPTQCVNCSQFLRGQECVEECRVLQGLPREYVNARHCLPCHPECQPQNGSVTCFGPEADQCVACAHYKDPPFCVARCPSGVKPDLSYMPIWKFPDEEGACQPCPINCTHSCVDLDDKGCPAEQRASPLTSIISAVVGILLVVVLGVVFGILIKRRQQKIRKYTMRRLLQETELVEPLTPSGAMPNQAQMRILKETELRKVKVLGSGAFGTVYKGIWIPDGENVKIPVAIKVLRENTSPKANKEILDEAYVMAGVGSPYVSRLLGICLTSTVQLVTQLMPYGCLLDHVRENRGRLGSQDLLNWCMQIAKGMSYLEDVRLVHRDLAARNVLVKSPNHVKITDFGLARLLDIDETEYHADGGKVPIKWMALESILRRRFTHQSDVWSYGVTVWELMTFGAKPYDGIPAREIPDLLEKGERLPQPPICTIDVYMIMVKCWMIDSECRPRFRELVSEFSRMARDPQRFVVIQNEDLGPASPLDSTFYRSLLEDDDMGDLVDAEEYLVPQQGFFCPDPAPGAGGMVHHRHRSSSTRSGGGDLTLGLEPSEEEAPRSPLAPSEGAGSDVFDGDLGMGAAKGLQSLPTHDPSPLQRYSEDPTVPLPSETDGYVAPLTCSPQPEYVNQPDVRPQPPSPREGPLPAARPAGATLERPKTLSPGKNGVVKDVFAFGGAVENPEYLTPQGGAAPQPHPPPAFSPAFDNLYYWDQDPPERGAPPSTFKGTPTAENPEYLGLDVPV
T1 sequence (P00533 whole entry, the tested form may be a part): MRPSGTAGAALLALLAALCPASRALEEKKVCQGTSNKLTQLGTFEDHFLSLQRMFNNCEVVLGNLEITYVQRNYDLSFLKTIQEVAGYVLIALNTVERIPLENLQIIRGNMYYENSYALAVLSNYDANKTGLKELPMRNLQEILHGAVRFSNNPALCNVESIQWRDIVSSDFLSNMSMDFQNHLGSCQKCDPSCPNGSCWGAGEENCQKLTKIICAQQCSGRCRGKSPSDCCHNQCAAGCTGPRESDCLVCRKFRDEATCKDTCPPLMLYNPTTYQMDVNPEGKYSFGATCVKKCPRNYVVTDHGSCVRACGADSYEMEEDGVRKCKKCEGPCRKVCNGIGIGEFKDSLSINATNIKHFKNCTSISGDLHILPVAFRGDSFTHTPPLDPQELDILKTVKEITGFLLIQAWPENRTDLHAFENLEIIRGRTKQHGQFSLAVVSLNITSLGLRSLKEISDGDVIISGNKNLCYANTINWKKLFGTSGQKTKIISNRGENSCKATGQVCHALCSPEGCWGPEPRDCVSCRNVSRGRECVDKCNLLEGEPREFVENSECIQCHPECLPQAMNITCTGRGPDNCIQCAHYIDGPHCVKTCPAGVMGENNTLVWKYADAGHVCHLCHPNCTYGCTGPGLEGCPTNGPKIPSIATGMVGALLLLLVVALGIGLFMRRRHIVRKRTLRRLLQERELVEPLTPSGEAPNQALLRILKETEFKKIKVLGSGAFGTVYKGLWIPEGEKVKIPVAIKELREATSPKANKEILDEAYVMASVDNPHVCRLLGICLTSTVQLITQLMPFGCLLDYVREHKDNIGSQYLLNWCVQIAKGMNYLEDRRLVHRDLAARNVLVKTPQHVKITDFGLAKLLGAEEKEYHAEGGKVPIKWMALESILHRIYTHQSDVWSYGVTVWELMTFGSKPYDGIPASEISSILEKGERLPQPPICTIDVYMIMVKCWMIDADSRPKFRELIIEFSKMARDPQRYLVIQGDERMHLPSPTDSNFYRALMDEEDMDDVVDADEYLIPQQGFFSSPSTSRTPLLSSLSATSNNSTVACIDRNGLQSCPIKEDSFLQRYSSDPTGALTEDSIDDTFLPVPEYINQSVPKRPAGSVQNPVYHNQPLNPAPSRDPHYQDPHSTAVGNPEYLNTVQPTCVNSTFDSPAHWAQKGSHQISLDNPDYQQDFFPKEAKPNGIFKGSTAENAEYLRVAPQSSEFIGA
Receptor tyrosine-protein kinase erbB-2 (Homo sapiens, UniProt P04626, D769H), sequence (P04626 23-1255 D769H limits assumed): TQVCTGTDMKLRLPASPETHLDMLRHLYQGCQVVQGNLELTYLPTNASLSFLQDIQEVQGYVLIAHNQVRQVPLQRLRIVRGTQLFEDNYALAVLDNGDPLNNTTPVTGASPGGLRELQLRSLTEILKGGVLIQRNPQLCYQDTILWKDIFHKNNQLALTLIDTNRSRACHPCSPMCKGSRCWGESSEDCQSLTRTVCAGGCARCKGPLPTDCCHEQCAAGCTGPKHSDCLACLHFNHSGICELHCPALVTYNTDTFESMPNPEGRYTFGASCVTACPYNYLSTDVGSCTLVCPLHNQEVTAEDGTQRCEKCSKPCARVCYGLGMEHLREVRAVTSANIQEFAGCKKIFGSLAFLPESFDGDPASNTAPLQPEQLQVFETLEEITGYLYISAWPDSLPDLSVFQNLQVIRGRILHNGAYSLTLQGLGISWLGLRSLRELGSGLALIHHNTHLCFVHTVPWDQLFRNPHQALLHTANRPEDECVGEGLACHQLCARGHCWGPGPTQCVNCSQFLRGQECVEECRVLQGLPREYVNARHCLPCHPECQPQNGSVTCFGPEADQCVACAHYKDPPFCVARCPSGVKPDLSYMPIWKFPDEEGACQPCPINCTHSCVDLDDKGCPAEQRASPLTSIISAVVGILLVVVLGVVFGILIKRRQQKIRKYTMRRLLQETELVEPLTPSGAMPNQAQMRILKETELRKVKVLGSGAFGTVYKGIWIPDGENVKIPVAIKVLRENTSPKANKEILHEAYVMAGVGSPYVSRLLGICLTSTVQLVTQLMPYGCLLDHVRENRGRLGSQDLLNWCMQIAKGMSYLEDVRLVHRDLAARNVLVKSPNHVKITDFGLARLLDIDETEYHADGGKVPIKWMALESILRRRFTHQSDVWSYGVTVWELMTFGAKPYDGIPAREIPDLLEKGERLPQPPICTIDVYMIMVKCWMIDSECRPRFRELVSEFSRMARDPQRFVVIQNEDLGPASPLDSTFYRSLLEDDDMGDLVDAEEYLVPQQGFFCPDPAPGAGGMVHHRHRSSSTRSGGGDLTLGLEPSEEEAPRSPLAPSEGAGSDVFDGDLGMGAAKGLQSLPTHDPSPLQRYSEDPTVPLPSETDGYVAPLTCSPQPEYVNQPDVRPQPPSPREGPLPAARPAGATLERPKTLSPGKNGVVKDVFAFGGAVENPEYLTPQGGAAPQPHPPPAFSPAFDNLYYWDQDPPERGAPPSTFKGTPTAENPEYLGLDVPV
Receptor tyrosine-protein kinase erbB-2 (Homo sapiens, UniProt P04626, R896C), sequence (P04626 23-1255 R896C limits assumed): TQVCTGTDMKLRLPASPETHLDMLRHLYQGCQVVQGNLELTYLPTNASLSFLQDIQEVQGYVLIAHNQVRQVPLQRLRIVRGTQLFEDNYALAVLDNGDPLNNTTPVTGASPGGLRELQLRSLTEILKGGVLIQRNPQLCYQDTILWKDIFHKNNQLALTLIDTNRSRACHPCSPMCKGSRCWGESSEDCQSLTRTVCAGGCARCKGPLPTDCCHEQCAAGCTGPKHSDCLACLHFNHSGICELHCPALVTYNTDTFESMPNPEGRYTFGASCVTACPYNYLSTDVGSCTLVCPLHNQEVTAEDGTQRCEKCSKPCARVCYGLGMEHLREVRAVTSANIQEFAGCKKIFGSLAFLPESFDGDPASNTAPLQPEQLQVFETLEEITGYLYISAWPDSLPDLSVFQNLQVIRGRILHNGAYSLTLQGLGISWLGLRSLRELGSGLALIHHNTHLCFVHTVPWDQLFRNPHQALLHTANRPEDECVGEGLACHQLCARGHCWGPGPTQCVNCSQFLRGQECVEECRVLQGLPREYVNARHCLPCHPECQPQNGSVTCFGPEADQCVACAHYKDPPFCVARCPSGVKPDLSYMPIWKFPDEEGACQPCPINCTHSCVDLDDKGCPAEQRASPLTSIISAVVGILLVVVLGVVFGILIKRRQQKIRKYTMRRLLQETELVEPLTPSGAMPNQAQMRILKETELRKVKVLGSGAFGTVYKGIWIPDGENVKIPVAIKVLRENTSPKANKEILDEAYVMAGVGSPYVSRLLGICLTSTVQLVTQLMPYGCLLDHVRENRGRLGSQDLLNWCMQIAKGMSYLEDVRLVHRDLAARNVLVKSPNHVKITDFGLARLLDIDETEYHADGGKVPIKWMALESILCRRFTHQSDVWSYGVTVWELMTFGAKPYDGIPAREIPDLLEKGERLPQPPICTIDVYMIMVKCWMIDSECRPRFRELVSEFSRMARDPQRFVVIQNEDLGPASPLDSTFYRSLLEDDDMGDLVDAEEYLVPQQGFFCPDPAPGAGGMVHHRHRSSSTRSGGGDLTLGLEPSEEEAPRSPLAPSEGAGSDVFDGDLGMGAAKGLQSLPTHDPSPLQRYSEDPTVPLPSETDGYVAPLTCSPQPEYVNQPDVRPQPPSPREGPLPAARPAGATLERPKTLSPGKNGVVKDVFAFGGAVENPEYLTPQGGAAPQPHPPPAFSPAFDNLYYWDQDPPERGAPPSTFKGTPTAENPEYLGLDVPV

SMILES | IC50 (BT-474 [1]) | IC50 [2] | IC50 [3] | IC50 (NCI-N87 [4]) | other results
COCC(=O)NC/C=C/c1ccc2ncnc(Nc3ccc(Oc4cc5nncn5cn4)c(C)c3)c2c1 | 50 nM | 110 nM | 2.55 nM | 80.7 nM | 
Cc1cc(Nc2ncnc3ccc(NC4=NC(C)(C)CO4)cc23)ccc1Oc1ccn2ncnc2c1 [TUCATINIB] |  |  |  |  | IC50 [31]: 449 nM; IC50 [29]: 6.9 nM
Cc1cc(Nc2ncnc3ccc(NC(=O)/C=C/CN(C)C)cc23)ccc1Oc1cc2nncn2cn1 | 8.05 nM | 2.13 nM | 2.85 nM | 11.7 nM | 
Cc1cc(Nc2ncnc3cc(O)c(NC(=O)/C=C/[C@H]4CCCN4C)cc23)ccc1Oc1ccc2nccn2c1 | 5.22 nM | 2.32 nM | 6.42 nM | 4.08 nM | 
Cc1cc(Nc2c(C#N)cnc3ccc(NC(=O)/C=C/CN(C)C)cc23)ccc1Oc1cc2nncn2cn1 | 14.9 nM | 20.7 nM | 62.3 nM | 19.2 nM | 
COCC(=O)NC/C=C/c1ccc2ncc(C#N)c(Nc3ccc(Oc4cc5nncn5cn4)c(C)c3)c2c1 | 369 nM | 1830 nM |  | 441 nM | 

Further molecules by falling IC50 (BT-474 [1]), results first:

IC50 (BT-474 [1]) | IC50 [2] | IC50 [3] | SMILES | IC50 (NCI-N87 [4]) | other results
4.63 nM | 2.31 nM | 1.7 nM | Cc1cc(Nc2ncnc3cc(O)c(NC(=O)/C=C/[C@H]4CCCN4C)cc23)ccc1Oc1ccn2ccnc2c1 | 4.55 nM | 
3.97 nM |  | 9.07 nM | CCOc1cc2ncc(C#N)c(Nc3ccc(OCc4ccccn4)c(Cl)c3)c2cc1NC(=O)/C=C/[C@H]1CCCN1C [PYROTINIB] | 0.85 nM | inhibition in vivo at 20 mg/kg/day (BT-474 [21]): 118%; IC50 (SK-BR-3): 14 nM; IC50 [22]: 3.91 nM; IC50 [23]: 57.4 nM; IC50 [24]: 6.65 nM; inhibition in vivo at 20 mg/kg (BaF3 [25]): 55%; IC50 (ES-2): 778 nM; IC50 (NUGC-4): 60.8 nM; IC50 (MFE-280): 1560 nM; IC50 [26]: 1690 nM; inhibition in vivo at 20 mg/kg/day (NCI-N87 [27]): 113%; IC50 (MDA-MB-468): 659 nM; IC50 [28]: 2.4 nM; IC50 [29]: 4.43 nM; IC50 (NCI-H441): 1890 nM; IC50 (COLO-678): 1840 nM; IC50 (BaF3 [30]): 15 nM
3.11 nM | 1.03 nM | 2.41 nM | Cc1cc(Nc2ncnc3cc(O)c(NC(=O)/C=C/[C@H]4CCCN4C)cc23)ccc1Oc1cnc2ccnn2c1 | 1.9 nM | 
3.06 nM | 1.19 nM | 1.4 nM | Cc1cc(Nc2ncnc3ccc(NC(=O)/C=C/[C@H]4CCCN4C)cc23)ccc1Oc1cc2nncn2cn1 | 2.17 nM | 
1.75 nM | 25.9 nM | 3.68 nM | CCOc1cc2ncnc(Nc3ccc(Oc4cc5nncn5cn4)c(C)c3)c2cc1NC(=O)/C(F)=C\[C@@H]1CCCN1C | 0.56 nM | AUC(0-t) at 24 h [5]: 630 ng·h/mL; clearance [6]: 80.8 mL/min/kg; AUC(0-t) at 24 h [7]: 170 ng·h/mL; Vd [8]: 4.49 L/kg; half-life [9]: 6.62 h; bioavailability [10]: 13.7%; half-life [11]: 4.14 h; Cmax [12]: 290 ng/mL; half-life [13]: 1.16 h; Tmax [14]: 0.42 h; Vd [15]: 23.6 L/kg; bioavailability [16]: 34.4%; clearance [17]: 90 mL/min/kg; Tmax [18]: 2.67 h; half-life [19]: 0.87 h; Cmax [20]: 30 ng/mL
